Experimental data as given in ChEMBL document CHEMBL1201862, “PubChem BioAssay data set” (2004).
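Exposure lasted 48 hours, with cells grown in 96-well plates and compounds tested at five concentrations. GI50 is the concentration that inhibits growth by half.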 The source made the active and inactive calls. No stated cut-off is given here; in the data, active = GI50 up to about 1.1 µM and inactive = higher.

Assays:
Experiment in all cases: DTP human tumour cell line panel, 48 h
SF-268 = system: SF-268
ACHN = system: ACHN
M14 = system: M14
SF-295 = system: SF-295
HL-60 = system: HL-60
NCI-H23 = system: NCI-H23
HCT-15 = system: HCT-15
RPMI-8226 = system: RPMI-8226
SF-539 = system: SF-539
CAKI-1 = system: CAKI-1
Malme-3M = system: Malme-3M
DU-145 = system: DU-145
OVCAR-5 = system: OVCAR-5
OVCAR-8 = system: OVCAR-8
CCRF-CEM = system: CCRF-CEM
NCI-H460 = system: NCI-H460
T47D = system: T47D
EKVX = system: EKVX
HOP-92 = system: HOP-92

| Structure (SMILES) | GI50 (SF-268) | GI50 (ACHN) | GI50 (M14) | GI50 (SF-295) | GI50 (HL-60) | GI50 (NCI-H23) | GI50 (HCT-15) [µM] | GI50 (RPMI-8226) | GI50 (SF-539) | GI50 (CAKI-1) | GI50 (Malme-3M) | GI50 (DU-145) | GI50 (OVCAR-5) | GI50 (OVCAR-8) | GI50 (CCRF-CEM) | GI50 (NCI-H460) | GI50 (T47D) | GI50 (EKVX) | GI50 (HOP-92) |
| --- | --- | --- | --- | --- | --- | --- | --- | --- | --- | --- | --- | --- | --- | --- | --- | --- | --- | --- | --- |
| Cc1cn([C@H]2C[C@H](O)[C@@H](CO)O2)c(=O)nc1N | > 100 µM (inactive) | > 100 µM (inactive) | > 100 µM (inactive) | > 100 µM (inactive) | > 100 µM (inactive) | > 100 µM (inactive) | > 100 | > 100 µM (inactive) | > 100 µM (inactive) | > 100 µM (inactive) | > 100 µM (inactive) | > 100 µM (inactive) | > 100 µM (inactive) | > 100 µM (inactive) | > 100 µM (inactive) | > 100 µM (inactive) | > 100 µM (inactive) | – | – |
| CC(/C=N/N=C1NCCCCN1)=N\N=C1NCCCCN1 | > 100 µM (inactive) | > 100 µM (inactive) | 18.2 µM (inactive) | 47.2 µM (inactive) | – | > 100 µM (inactive) | > 100 | > 100 µM (inactive) | > 100 µM (inactive) | > 100 µM (inactive) | 35.8 µM (inactive) | – | > 100 µM (inactive) | > 100 µM (inactive) | > 100 µM (inactive) | > 100 µM (inactive) | > 100 µM (inactive) | > 100 µM (inactive) | 37.9 µM (inactive) |
| O=C(NNC(=S)NCc1ccccc1)c1csc(NC(=S)NC2CCCCC2)n1 | 27.6 µM (inactive) | 38.2 µM (inactive) | 32.6 µM (inactive) | 42.1 µM (inactive) | > 100 µM (inactive) | 43 µM (inactive) | 37.5 | 25.9 µM (inactive) | 38 µM (inactive) | 47.3 µM (inactive) | 38.6 µM (inactive) | 59 µM (inactive) | > 100 µM (inactive) | 39.4 µM (inactive) | 46.2 µM (inactive) | – | 30 µM (inactive) | 19.2 µM (inactive) | – |
| CCCCN1C(=O)c2c(Br)sc(Br)c2C1=O | 31.8 µM (inactive) | 47.8 µM (inactive) | 31.1 µM (inactive) | 43.1 µM (inactive) | – | 44.3 µM (inactive) | 25.7 | 29.3 µM (inactive) | 24.2 µM (inactive) | 67.8 µM (inactive) | 33.2 µM (inactive) | 36.4 µM (inactive) | 30.4 µM (inactive) | 38.9 µM (inactive) | 26.3 µM (inactive) | 31.6 µM (inactive) | 57.7 µM (inactive) | 70.1 µM (inactive) | – |
| N=C(N)Cn1cnc2ccccc21 | > 100 µM (inactive) | > 100 µM (inactive) | > 100 µM (inactive) | > 100 µM (inactive) | > 100 µM (inactive) | > 100 µM (inactive) | > 100 | > 100 µM (inactive) | > 100 µM (inactive) | – | > 100 µM (inactive) | – | > 100 µM (inactive) | > 100 µM (inactive) | > 100 µM (inactive) | > 100 µM (inactive) | – | > 100 µM (inactive) | – |
| O=c1c2cc([N+](=O)[O-])ccc2n2n1Cc1ccccc1CC2 | > 100 µM (inactive) | > 100 µM (inactive) | > 100 µM (inactive) | > 100 µM (inactive) | > 100 µM (inactive) | > 100 µM (inactive) | > 100 | > 100 µM (inactive) | > 100 µM (inactive) | > 100 µM (inactive) | > 100 µM (inactive) | > 100 µM (inactive) | > 100 µM (inactive) | > 100 µM (inactive) | > 100 µM (inactive) | > 100 µM (inactive) | – | 2.11 µM (inactive) | – |
| CCOC(=O)CCC(NC(=O)OCc1ccccc1)C(=O)NC(CCC(=O)OCC)C(=O)NC(CCC(=O)OCC)C(=O)NNC(=O)OC(C)(C)C (configuration not stated) | – | > 100 µM (inactive) | > 100 µM (inactive) | – | > 100 µM (inactive) | > 100 µM (inactive) | > 100 | > 100 µM (inactive) | – | – | > 100 µM (inactive) | – | > 100 µM (inactive) | > 100 µM (inactive) | 49 µM (inactive) | > 100 µM (inactive) | – | > 100 µM (inactive) | > 100 µM (inactive) |
| O=C(CP(=O)(c1ccccc1)c1ccccc1)c1cccc(C(=O)CP(=O)(c2ccccc2)c2ccccc2)c1 | 30.2 µM (inactive) | > 100 µM (inactive) | > 100 µM (inactive) | 14.6 µM (inactive) | > 100 µM (inactive) | – | > 100 | > 100 µM (inactive) | 29.7 µM (inactive) | > 100 µM (inactive) | – | > 100 µM (inactive) | 58.6 µM (inactive) | 43.1 µM (inactive) | > 100 µM (inactive) | > 100 µM (inactive) | 76 µM (inactive) | 56.8 µM (inactive) | – |
| CSc1cnn(CCC#N)c(=O)n1 | > 100 µM (inactive) | > 100 µM (inactive) | > 100 µM (inactive) | > 100 µM (inactive) | 33.2 µM (inactive) | > 100 µM (inactive) | > 10 | > 100 µM (inactive) | > 100 µM (inactive) | > 100 µM (inactive) | > 100 µM (inactive) | > 100 µM (inactive) | > 100 µM (inactive) | > 100 µM (inactive) | 31 µM (inactive) | – | > 100 µM (inactive) | > 100 µM (inactive) | – |
| O=C(/C(=C\C(=O)c1cccs1)c1ccsc1)c1ccc(Br)cc1 | > 100 µM (inactive) | > 100 µM (inactive) | > 100 µM (inactive) | > 100 µM (inactive) | > 100 µM (inactive) | 80.2 µM (inactive) | > 100 | 71.1 µM (inactive) | > 100 µM (inactive) | > 100 µM (inactive) | 60.1 µM (inactive) | > 100 µM (inactive) | – | > 100 µM (inactive) | > 100 µM (inactive) | > 100 µM (inactive) | 18.6 µM (inactive) | 92.5 µM (inactive) | – |
| CC(Nc1ccc(Cl)cc1)c1ccncc1 (configuration not stated) | 79.6 µM (inactive) | > 100 µM (inactive) | > 100 µM (inactive) | 72.6 µM (inactive) | – | 56.8 µM (inactive) | > 100 | 12.4 µM (inactive) | > 100 µM (inactive) | > 100 µM (inactive) | > 100 µM (inactive) | 74.6 µM (inactive) | > 100 µM (inactive) | > 100 µM (inactive) | 83.9 µM (inactive) | 36.8 µM (inactive) | 42.3 µM (inactive) | 75.5 µM (inactive) | – |
| CCC(C)N1CN(c2ccccc2)C2(CCN(CCCC(=O)c3ccc(F)cc3)CC2)C1=O (configuration not stated) | 6.7 µM (inactive) | 1.68 µM (inactive) | 14.3 µM (inactive) | 4.55 µM (inactive) | 4.76 µM (inactive) | 3.57 µM (inactive) | 5.33 | 5.52 µM (inactive) | 7.71 µM (inactive) | 2.25 µM (inactive) | 14.7 µM (inactive) | 0.927 µM (active) | 0.839 µM (active) | > 10 µM (inactive) | 0.64 µM (active) | – | 1.68 µM (inactive) | 10.8 µM (inactive) | – |
| Cc1cc(OCC(=O)N/N=C/C(Br)=C/c2ccccc2)nc(SCC(=O)N/N=C/C(Br)=C/c2ccccc2)n1 | 48.2 µM (inactive) | > 100 µM (inactive) | > 100 µM (inactive) | > 100 µM (inactive) | > 100 µM (inactive) | > 100 µM (inactive) | > 100 | 68.5 µM (inactive) | – | > 100 µM (inactive) | – | 58.3 µM (inactive) | > 100 µM (inactive) | – | > 100 µM (inactive) | 28.2 µM (inactive) | – | 80 µM (inactive) | 24.9 µM (inactive) |
